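Dose response: 5 concentrations. Exposure: 48 h. Format: 96-well plates. Endpoint: linear interpolation; highest concentration if not reached. GI50: concentration for 50% inhibition of growth. The concentration for full growth arrest is given as TGI.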
Experiments:
Experiment in all cases: DTP human tumour cell line panel, 48 h
MDA-N = test system: MDA-N
OVCAR-8 ovarian = test system: OVCAR-8 ovarian
MALME-3M melanoma = test system: MALME-3M melanoma
A549 NSCLC = test system: A549 NSCLC
SK-MEL-5 melanoma = test system: SK-MEL-5 melanoma
SR leukemia = test system: SR leukemia
SK-MEL-28 melanoma = test system: SK-MEL-28 melanoma
NCI-H522 lung = test system: NCI-H522 lung
IGROV1 ovarian = test system: IGROV1 ovarian

SMILES | TGI (MDA-N) | TGI (OVCAR-8 ovarian) | TGI (MALME-3M melanoma) | TGI (A549 NSCLC) | TGI (SK-MEL-5 melanoma) | TGI (SR leukemia) | TGI (SK-MEL-28 melanoma) | GI50 (OVCAR-8 ovarian) | GI50 (MALME-3M melanoma) | GI50 (A549 NSCLC) | GI50 (NCI-H522 lung) | TGI (NCI-H522 lung) | GI50 (IGROV1 ovarian) | TGI (IGROV1 ovarian) | GI50 (SK-MEL-5 melanoma) | GI50 (SR leukemia) | GI50 (SK-MEL-28 melanoma)
Cc1ccc(Nc2n[nH]c(=S)s2)cc1 | > 100 µM | > 100 µM | > 100 µM | > 100 µM | > 100 µM | > 100 µM | > 100 µM | – | – | – | – | – | – | – | – | – | –
CN1CCN(Cc2ccc(NC(=O)c3cncc(C#Cc4cncc5ncccc45)c3)cc2C(F)(F)F)CC1 | – | 18.3 µM | 1.05 µM | 15.5 µM | 13.6 µM | 34.6 µM | 10.7 µM | 4.53 µM | 0.284 µM | 3.86 µM | 3.11 µM | 17 µM | 1.16 µM | 7.45 µM | 2.95 µM | 3.23 µM | 1.23 µM
O=C1C2=Nc3ccccc3C(O)N2c2ccccc21 (stereo not drawn) | 3.5 µM | > 100 µM | 29.8 µM | > 100 µM | 3.76 µM | > 100 µM | > 68.7 µM | – | – | – | – | 32.6 µM | – | > 100 µM | – | – | –
C/C1=C/C2=CC(C)C[C@@H]2C(=O)[C@]2(C)C(=O)CC(C)(C)[C@H]2CC1=O (stereo partly drawn) | > 50 µM | > 50 µM | > 50 µM | > 50 µM | > 50 µM | – | – | – | – | – | – | > 50 µM | – | > 50 µM | – | – | –
CC(=O)OCC(=O)O[C@@H]1C[C@]2(C(C)C)O[C@@]1(C)[C@@H]1CC[C@@H](C)[C@H]1[C@@H]2OC(=O)/C=C/c1ccccc1 | – | > 56.3 µM | 88.8 µM | > 100 µM | 31.5 µM | > 95.9 µM | 83.4 µM | 0.0747 µM | 20.7 µM | 18.5 µM | 17.9 µM | 47.8 µM | 42.5 µM | > 100 µM | 15.5 µM | 12.2 µM | 22.3 µM
Cc1noc(C)c1-c1cc(O)cc(C(O)c2ccccc2)c1 (stereo not drawn) | – | > 100 µM | > 100 µM | > 100 µM | 29.5 µM | > 100 µM | > 100 µM | 8.33 µM | 28.9 µM | 22.4 µM | 27 µM | > 100 µM | 23.2 µM | > 100 µM | 5.95 µM | 1.01 µM | 9.15 µM
CC/C=C\C/C=C\C[C@H](O)C/C=C1/C(=O)C=C[C@@H]1C/C=C\CCCC(=O)O | – | 13.9 µM | 15.6 µM | 56.6 µM | 5.98 µM | 16.7 µM | 13.3 µM | 3.56 µM | 3.46 µM | 13.6 µM | 1.71 µM | 3.78 µM | 6.78 µM | 25.9 µM | 2.42 µM | 2.46 µM | 3.83 µM
O=C(CN1CCN(c2ccc(Cl)cc2)CC1)N1CCN(c2nnc(-c3ccc(Cl)cc3)c(-c3ccc(Cl)cc3)n2)CC1 | – | > 100 µM | > 100 µM | > 100 µM | > 100 µM | 53.9 µM | > 100 µM | > 100 µM | 39.9 µM | > 100 µM | 18.2 µM | 46.9 µM | 35.1 µM | > 100 µM | 14.6 µM | 10.1 µM | > 100 µM

— PubChem BioAssay (NCI)
